This passage reports zone of inhibition results from ChEMBL document CHEMBL1926648, “Synthesis and biological activity of dihydroimidazole and 3,4-dihydrobenzo[4,5]imidazo[1,2-a][1,3,5]triazins” (2012).

What all share (assay type): functional
Holding throughout (settings): read-out: IZ

Test [1] has as its system Bacillus cereus. The experiment in a line: Antibacterial activity against Bacillus cereus at 50000 ppm after 24 hrs by agar diffusion method. On the technique in general: Agar diffusion results depend on both activity and mobility in agar.
For test [2], the system named is Bacillus subtilis. The experiment in a line: Antibacterial activity against Bacillus subtilis at 50000 ppm after 24 hrs by agar diffusion method.
Test [3] concerns Escherichia coli. The experiment in a line: Antibacterial activity against Escherichia coli at 10000 ppm after 24 hrs by agar diffusion method.
For test [4], the system named is Escherichia coli. The experiment in a line: Antibacterial activity against Escherichia coli at 30000 ppm after 24 hrs by agar diffusion method.
In test [5] the test system is Escherichia coli. The experiment in a line: Antibacterial activity against Escherichia coli at 50000 ppm after 24 hrs by agar diffusion method.
Test [6] has as its system Micrococcus luteus. The experiment in a line: Antibacterial activity against Micrococcus luteus at 30000 ppm after 24 hrs by agar diffusion method.
Test [7] deals with Micrococcus luteus. The experiment in a line: Antibacterial activity against Micrococcus luteus at 50000 ppm after 24 hrs by agar diffusion method.
Test [8] relates to Staphylococcus aureus. The experiment in a line: Antibacterial activity against Staphylococcus aureus at 10000 ppm after 24 hrs by agar diffusion method.
Test [9] deals with Staphylococcus aureus. The experiment in a line: Antibacterial activity against Staphylococcus aureus at 30000 ppm after 24 hrs by agar diffusion method.
For test [10], the system named is Staphylococcus aureus. The experiment in a line: Antibacterial activity against Staphylococcus aureus at 50000 ppm after 24 hrs by agar diffusion method.
The subject of test [11] is Pseudomonas aeruginosa. The experiment in a line: Antibacterial activity against Pseudomonas aeruginosa at 10000 ppm after 24 hrs by agar diffusion method.
For test [12], the system named is Pseudomonas aeruginosa. The experiment in a line: Antibacterial activity against Pseudomonas aeruginosa at 30000 ppm after 24 hrs by agar diffusion method.
Test [13] relates to Pseudomonas aeruginosa. The experiment in a line: Antibacterial activity against Pseudomonas aeruginosa at 50000 ppm after 24 hrs by agar diffusion method.
Test [14] relates to Kocuria rosea. The experiment in a line: Antibacterial activity against Micrococcus roseus at 10000 ppm after 24 hrs by agar diffusion method.
Test [15] concerns Kocuria rosea. The experiment in a line: Antibacterial activity against Micrococcus roseus at 30000 ppm after 24 hrs by agar diffusion method.
For test [16], the system named is Kocuria rosea. The experiment in a line: Antibacterial activity against Micrococcus roseus at 50000 ppm after 24 hrs by agar diffusion method.
The test system of test [17] is Bacillus cereus. The experiment in a line: Antibacterial activity against Bacillus cereus at 10000 ppm after 24 hrs by agar diffusion method.
Test [18] concerns Bacillus cereus. The experiment in a line: Antibacterial activity against Bacillus cereus at 30000 ppm after 24 hrs by agar diffusion method.
In test [19] the test system is Bacillus subtilis. The experiment in a line: Antibacterial activity against Bacillus subtilis at 10000 ppm after 24 hrs by agar diffusion method.
In test [20] the test system is Bacillus subtilis. The experiment in a line: Antibacterial activity against Bacillus subtilis at 30000 ppm after 24 hrs by agar diffusion method.
Test [21] has as its system Micrococcus luteus. The experiment in a line: Antibacterial activity against Micrococcus luteus at 10000 ppm after 24 hrs by agar diffusion method.

Structures are written as SMILES.

Take `Nc1c[nH]/c(=N/c2nc3ccccc3[nH]2)[nH]1`: the zone of inhibition at 50000 ppm in the test with Bacillus cereus [1] amounted to 4 mm; in the test with Bacillus subtilis [2], 6 mm; in the test with Escherichia coli [5] it was 14 mm; with Micrococcus luteus [7], 8 mm; in the test on Staphylococcus aureus [10], 15 mm; in the test with Pseudomonas aeruginosa [13] it was 9 mm. Further, in the test on Kocuria rosea [16], the zone of inhibition at 50000 ppm turned out to be 12 mm. Further, the zone of inhibition at 10000 ppm in the test with Escherichia coli [3] is 3 mm; with Staphylococcus aureus [8] it was 4 mm; in the test on Pseudomonas aeruginosa [11], 4 mm; in the test with Kocuria rosea [14], 6 mm. For the same molecule, the zone of inhibition at 30000 ppm in the test on Escherichia coli [4] came out at 8 mm; in the test on Micrococcus luteus [6] it was 4 mm; in the test on Staphylococcus aureus [9], 9 mm; in the test on Pseudomonas aeruginosa [12], 7 mm; in the test on Kocuria rosea [15], 8 mm.

Regarding `NC1=Nc2nc3ccccc3n2C2(NC(=O)CC(=O)N2)N1`, the zone of inhibition at 10000 ppm in the test on Bacillus cereus [17] came to 1 mm; in the test with Bacillus subtilis [19] it was 6 mm; in the test with Escherichia coli [3] it was 8 mm; with Pseudomonas aeruginosa [11] it was 2 mm; in the test with Kocuria rosea [14], 1 mm. Further, the zone of inhibition at 30000 ppm with Bacillus cereus [18] turned out to be 4 mm; with Bacillus subtilis [20], 10 mm; in the test on Escherichia coli [4], 11 mm; in the test with Micrococcus luteus [6] it was 4 mm; with Staphylococcus aureus [9], 5 mm; in the test on Pseudomonas aeruginosa [12] it was 6 mm. Moreover, the zone of inhibition at 30000 ppm in the test with Kocuria rosea [15] came out at 4 mm. For the same molecule, the zone of inhibition at 50000 ppm in the test on Bacillus cereus [1] was determined as 7 mm; in the test with Bacillus subtilis [2], 14 mm; with Escherichia coli [5] it was 15 mm; in the test on Micrococcus luteus [7] it was 6 mm; in the test on Staphylococcus aureus [10], 8 mm; in the test with Pseudomonas aeruginosa [13], 9 mm. For the same molecule, in the test with Kocuria rosea [16], the zone of inhibition at 50000 ppm worked out at 7 mm.

Regarding `Clc1c[nH]/c(=N/c2nc3ccccc3[nH]2)[nH]1`, the zone of inhibition at 50000 ppm in the test with Bacillus cereus [1] was 6 mm; in the test with Bacillus subtilis [2], 14 mm; in the test on Escherichia coli [5], 18 mm; with Micrococcus luteus [7], 4 mm; in the test on Staphylococcus aureus [10] it was 9 mm; in the test on Pseudomonas aeruginosa [13], 2 mm. Besides, the zone of inhibition at 50000 ppm with Kocuria rosea [16] came to 8 mm. Besides, the zone of inhibition at 10000 ppm in the test with Bacillus subtilis [19] came to 6 mm; with Escherichia coli [3], 9 mm. Also, the zone of inhibition at 30000 ppm in the test with Bacillus subtilis [20] stood at 10 mm; in the test on Escherichia coli [4] it was 13 mm; in the test with Staphylococcus aureus [9], 5 mm; in the test on Kocuria rosea [15], 3 mm.

Consider `NC1=NC2(CCCC2)n2c(nc3ccccc32)N1`, for which the zone of inhibition at 30000 ppm stood at 5 mm with Bacillus cereus [18]; 12 mm with Bacillus subtilis [20]; 17 mm in the test with Escherichia coli [4]; 7 mm in the test with Micrococcus luteus [6]; 4 mm with Staphylococcus aureus [9]; 3 mm in the test on Kocuria rosea [15]. Also, the zone of inhibition at 50000 ppm turned out to be 9 mm in the test with Bacillus cereus [1]; 15 mm in the test with Bacillus subtilis [2]; 20 mm in the test with Escherichia coli [5]; 12 mm in the test with Micrococcus luteus [7]; 6 mm with Staphylococcus aureus [10]; 5 mm in the test on Pseudomonas aeruginosa [13]. In addition, the zone of inhibition at 50000 ppm with Kocuria rosea [16] was 8 mm. Also, the results for the zone of inhibition at 10000 ppm in the test with Bacillus subtilis [19], in the test with Escherichia coli [3] and with Micrococcus luteus [21] were 9 mm, 12 mm and 7 mm, respectively.

For the molecule `NC1=NC2(CCCCC2)n2c(nc3ccccc32)N1`, the zone of inhibition at 30000 ppm is 4 mm with Bacillus cereus [18]; 11 mm in the test with Bacillus subtilis [20]; 15 mm in the test on Escherichia coli [4]; 7 mm in the test on Micrococcus luteus [6]; 4 mm with Pseudomonas aeruginosa [12]. The zone of inhibition at 50000 ppm in the test with Bacillus cereus [1] came out at 9 mm; with Bacillus subtilis [2], 13 mm; in the test on Escherichia coli [5], 18 mm; with Micrococcus luteus [7] it was 12 mm; in the test on Staphylococcus aureus [10], 5 mm; in the test on Pseudomonas aeruginosa [13], 5 mm. Moreover, in the test with Kocuria rosea [16], the zone of inhibition at 50000 ppm worked out at 5 mm. The zone of inhibition at 10000 ppm in the test with Bacillus subtilis [19] was determined as 7 mm; with Escherichia coli [3], 12 mm; in the test on Micrococcus luteus [21], 7 mm.

Take `CC1=NN(c2ccccc2)C2(C1)NC(N)=Nc1nc3ccccc3n12` (configuration not stated): the zone of inhibition at 50000 ppm came out at 4 mm with Bacillus cereus [1]; 9 mm with Bacillus subtilis [2]; 16 mm with Escherichia coli [5]; 11 mm in the test on Micrococcus luteus [7]; 4 mm in the test with Staphylococcus aureus [10]; 6 mm in the test on Pseudomonas aeruginosa [13]. Besides, the zone of inhibition at 50000 ppm in the test on Kocuria rosea [16] came out at 8 mm. Moreover, the zone of inhibition at 30000 ppm in the test with Bacillus subtilis [20] was 3 mm; in the test with Escherichia coli [4], 13 mm; in the test with Micrococcus luteus [6], 9 mm; with Pseudomonas aeruginosa [12], 4 mm; in the test on Kocuria rosea [15], 3 mm. In addition, the figures for the zone of inhibition at 10000 ppm in the test with Escherichia coli [3] and in the test on Micrococcus luteus [21] were 8 mm and 5 mm, respectively.

On to `c1ccc(-c2c[nH]/c(=N/c3nc4ccccc4[nH]3)[nH]2)cc1`, for which the zone of inhibition at 10000 ppm in the test with Bacillus cereus [17] was found to be 6 mm; with Bacillus subtilis [19] it was 9 mm; in the test with Escherichia coli [3] it was 4 mm; with Pseudomonas aeruginosa [11], 4 mm; with Kocuria rosea [14], 3 mm. The zone of inhibition at 30000 ppm in the test with Bacillus cereus [18] is 8 mm; in the test on Bacillus subtilis [20], 11 mm; in the test on Escherichia coli [4], 6 mm; in the test on Staphylococcus aureus [9], 5 mm; in the test with Pseudomonas aeruginosa [12], 6 mm; with Kocuria rosea [15], 8 mm. For the same molecule, the zone of inhibition at 50000 ppm with Bacillus cereus [1] was 9 mm; with Bacillus subtilis [2], 14 mm; in the test with Escherichia coli [5] it was 8 mm; in the test on Micrococcus luteus [7] it was 3 mm; in the test with Staphylococcus aureus [10] it was 9 mm; with Pseudomonas aeruginosa [13], 11 mm. Further, the zone of inhibition at 50000 ppm in the test with Kocuria rosea [16] was 10 mm.

With `CC1(C)[C@@H]2CC[C@@]1(C)C1(C2)NC(N)=Nc2nc3ccccc3n21` (some centres not stated), the zone of inhibition at 50000 ppm came to 4 mm in the test on Bacillus cereus [1]; 6 mm in the test with Bacillus subtilis [2]; 12 mm in the test on Escherichia coli [5]; 8 mm in the test with Staphylococcus aureus [10]; 5 mm with Kocuria rosea [16]. Besides, the values for the zone of inhibition at 10000 ppm with Bacillus subtilis [19] and in the test with Escherichia coli [3] were 3 mm and 4 mm, respectively. Also, the zone of inhibition at 30000 ppm with Bacillus subtilis [20] turned out to be 5 mm; in the test with Escherichia coli [4], 9 mm; in the test with Staphylococcus aureus [9], 3 mm; in the test with Kocuria rosea [15], 2 mm.

Regarding `Oc1c[nH]/c(=N/c2nc3ccccc3[nH]2)[nH]1`, the zone of inhibition at 30000 ppm worked out at 5 mm in the test on Bacillus cereus [18]; 8 mm in the test with Escherichia coli [4]; 5 mm in the test on Micrococcus luteus [6]; 7 mm in the test on Staphylococcus aureus [9]; 8 mm in the test with Pseudomonas aeruginosa [12]; 6 mm with Kocuria rosea [15]. The zone of inhibition at 50000 ppm turned out to be 10 mm with Bacillus cereus [1]; 7 mm in the test on Bacillus subtilis [2]; 13 mm with Escherichia coli [5]; 9 mm in the test on Micrococcus luteus [7]; 13 mm in the test on Staphylococcus aureus [10]; 11 mm with Pseudomonas aeruginosa [13]. Besides, the zone of inhibition at 50000 ppm in the test with Kocuria rosea [16] came to 8 mm. The zone of inhibition at 10000 ppm in the test on Escherichia coli [3] was found to be 6 mm; with Staphylococcus aureus [8], 2 mm; with Pseudomonas aeruginosa [11], 5 mm.

Consider `Cc1c[nH]/c(=N/c2nc3ccccc3[nH]2)[nH]1`, for which the zone of inhibition at 10000 ppm came to 6 mm with Bacillus cereus [17]; 10 mm with Bacillus subtilis [19]; 1 mm in the test on Escherichia coli [3]; 6 mm with Micrococcus luteus [21]; 5 mm with Kocuria rosea [14]. Besides, the zone of inhibition at 30000 ppm in the test with Bacillus cereus [18] was determined as 9 mm; in the test with Bacillus subtilis [20], 13 mm; in the test on Escherichia coli [4], 4 mm; with Micrococcus luteus [6] it was 7 mm; in the test on Staphylococcus aureus [9], 3 mm; in the test on Pseudomonas aeruginosa [12], 4 mm. In the test on Kocuria rosea [15], the zone of inhibition at 30000 ppm amounted to 7 mm. For the same molecule, the zone of inhibition at 50000 ppm with Bacillus cereus [1] came to 12 mm; with Bacillus subtilis [2], 15 mm; in the test with Escherichia coli [5], 8 mm; in the test with Micrococcus luteus [7] it was 8 mm; with Staphylococcus aureus [10], 6 mm; with Pseudomonas aeruginosa [13], 7 mm. In the test on Kocuria rosea [16], the zone of inhibition at 50000 ppm worked out at 9 mm.
